Laboratory results taken from ChEMBL document CHEMBL1201862, “PubChem BioAssay data set” (2004).
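Each compound was tested at five concentrations against cells in 96-well plates for 48 hours. GI50 is the concentration that inhibits growth by half.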 Active and inactive are the calls of the source. Cut-off read from the data, not from the text of the source: active = GI50 up to about 1.1 µM and inactive = higher.

How the values were obtained:
Experiment in all cases: growth of human tumour cells (NCI), 48 h
[1] = test system: SN12C
[2] = test system: LOX IMVI
[3] = test system: TK-10
[4] = test system: NCI-H460
[5] = test system: K562
[6] = test system: IGROV-1
[7] = test system: DU-145
[8] = test system: T47D
[9] = test system: HCT-116
[10] = test system: SR
[11] = test system: MDA-MB-435
[12] = test system: KM12
[13] = test system: CAKI-1
[14] = test system: SK-MEL-5
[15] = test system: BT-549
[16] = test system: SW-620
[17] = test system: OVCAR-8
[18] = test system: UACC-257
[19] = test system: RXF 393
[20] = test system: HCT-15
[21] = test system: SF-268
[22] = test system: OVCAR-5
[23] = test system: CCRF-CEM
[24] = test system: COLO 205
[25] = test system: NCI-H522
[26] = test system: Hs-578T
[27] = test system: HL-60
[28] = test system: 786-0
[29] = test system: UACC-62
[30] = test system: Malme-3M
[31] = test system: NCI-H23
[32] = test system: HOP-62
[33] = test system: SNB-19
[34] = test system: OVCAR-3
[35] = test system: OVCAR-4
[36] = test system: SK-MEL-2
[37] = test system: SK-OV-3
[38] = test system: M14
[39] = test system: SF-539
[40] = test system: SF-295
[41] = test system: PC-3
[42] = test system: ACHN
[43] = test system: SNB-75
[44] = test system: HT-29
[45] = test system: MOLT-4
[46] = test system: MDA-N
[47] = test system: NCI/ADR-RES
[48] = test system: A549
[49] = test system: MDA-MB-231
[50] = test system: UO-31
[51] = test system: EKVX
[52] = test system: MCF7
[53] = test system: HCC 2998
[54] = test system: U-251
[55] = test system: RPMI-8226
[56] = test system: HOP-92
[57] = test system: SK-MEL-28
[58] = test system: A498
[59] = test system: NCI-H226

## N#CCc1nc(-c2ccccc2)n[nH]1
[1]
  GI50: > 100 µM (inactive)
[2]
  GI50: > 100 µM (inactive)
[3]
  GI50: > 100 µM (inactive)
[4]
  GI50: > 100 µM (inactive)
[5]
  GI50: 76.6 µM (inactive)
[6]
  GI50: > 100 µM (inactive)
[7]
  GI50: > 100 µM (inactive)
[8]
  GI50: > 100 µM (inactive)
[9]
  GI50: > 100 µM (inactive)
[10]
  GI50: > 100 µM (inactive)
[11]
  GI50: > 100 µM (inactive)
[12]
  GI50: > 100 µM (inactive)
[13]
  GI50: > 100 µM (inactive)
[14]
  GI50: > 100 µM (inactive)
[15]
  GI50: > 100 µM (inactive)
[16]
  GI50: > 100 µM (inactive)
[17]
  GI50: > 100 µM (inactive)
[18]
  GI50: > 100 µM (inactive)
[19]
  GI50: > 100 µM (inactive)
[20]
  GI50: > 100 µM
[21]
  GI50: > 100 µM (inactive)
[22]
  GI50: > 100 µM (inactive)
[23]
  GI50: > 100 µM (inactive)
[24]
  GI50: > 100 µM (inactive)
[25]
  GI50: > 100 µM (inactive)
[26]
  GI50: 77.4 µM (inactive)
[27]
  GI50: > 100 µM (inactive)
[28]
  GI50: > 100 µM (inactive)
[29]
  GI50: > 100 µM (inactive)
[30]
  GI50: > 100 µM (inactive)
[31]
  GI50: > 100 µM (inactive)
[32]
  GI50: > 100 µM (inactive)
[33]
  GI50: 74 µM (inactive)
[34]
  GI50: > 100 µM (inactive)
[35]
  GI50: > 100 µM (inactive)
[36]
  GI50: > 100 µM (inactive)
[37]
  GI50: > 100 µM (inactive)
[38]
  GI50: > 100 µM (inactive)
[39]
  GI50: > 100 µM (inactive)
[40]
  GI50: > 100 µM (inactive)
[41]
  GI50: > 100 µM (inactive)
[42]
  GI50: > 100 µM (inactive)
[43]
  GI50: > 100 µM (inactive)
[44]
  GI50: > 100 µM (inactive)
[45]
  GI50: > 100 µM (inactive)
[46]
  GI50: > 100 µM (inactive)
[47]
  GI50: > 100 µM (inactive)
[48]
  GI50: > 100 µM (inactive)
[49]
  GI50: > 100 µM (inactive)
[50]
  GI50: > 100 µM (inactive)
[51]
  GI50: 83.6 µM (inactive)
[52]
  GI50: > 100 µM (inactive)
[53]
  GI50: > 100 µM (inactive)

## COc1cccc(/C=N/C(/N=C/c2cccc(OC)c2O)c2cccc(OC)c2O)c1O
[54]
  GI50: 15.6 µM (inactive)
[1]
  GI50: 19.2 µM (inactive)
[2]
  GI50: 10.5 µM (inactive)
[3]
  GI50: 15.7 µM (inactive)
[4]
  GI50: 21.7 µM (inactive)
[5]
  GI50: 24.7 µM (inactive)
[55]
  GI50: 22 µM (inactive)
[6]
  GI50: 21.7 µM (inactive)
[56]
  GI50: 31.7 µM (inactive)
[7]
  GI50: 18.4 µM (inactive)
[8]
  GI50: 15.2 µM (inactive)
[9]
  GI50: 14.6 µM (inactive)
[10]
  GI50: 6.38 µM (inactive)
[11]
  GI50: 28.3 µM (inactive)
[12]
  GI50: 22.6 µM (inactive)
[13]
  GI50: 19.6 µM (inactive)
[14]
  GI50: 15 µM (inactive)
[15]
  GI50: 19.6 µM (inactive)
[16]
  GI50: 27.5 µM (inactive)
[17]
  GI50: 12.6 µM (inactive)
[18]
  GI50: 23.1 µM (inactive)
[19]
  GI50: 8.39 µM (inactive)
[20]
  GI50: 7.5 µM
[21]
  GI50: 10.6 µM (inactive)
[22]
  GI50: 22 µM (inactive)
[23]
  GI50: 7 µM (inactive)
[24]
  GI50: 32.1 µM (inactive)
[25]
  GI50: 21.8 µM (inactive)
[26]
  GI50: 17.6 µM (inactive)
[27]
  GI50: 25.9 µM (inactive)
[28]
  GI50: 23.3 µM (inactive)
[29]
  GI50: 24.2 µM (inactive)
[31]
  GI50: 28.8 µM (inactive)
[32]
  GI50: 29.4 µM (inactive)
[33]
  GI50: 22.6 µM (inactive)
[34]
  GI50: 11.7 µM (inactive)
[36]
  GI50: 14.8 µM (inactive)
[37]
  GI50: 26 µM (inactive)
[38]
  GI50: 17.1 µM (inactive)
[39]
  GI50: 20.1 µM (inactive)
[40]
  GI50: 23.6 µM (inactive)
[41]
  GI50: 26 µM (inactive)
[42]
  GI50: 21.5 µM (inactive)
[43]
  GI50: 13.9 µM (inactive)
[44]
  GI50: 24.4 µM (inactive)
[46]
  GI50: 26.4 µM (inactive)
[47]
  GI50: 19.6 µM (inactive)
[48]
  GI50: 26.7 µM (inactive)
[49]
  GI50: 25.1 µM (inactive)
[50]
  GI50: 20.1 µM (inactive)
[57]
  GI50: 18.7 µM (inactive)
[51]
  GI50: 19.2 µM (inactive)
[52]
  GI50: 18.9 µM (inactive)
[53]
  GI50: 18.8 µM (inactive)

## O=C(CCCN1CCC2(CC1)CC(=O)N(N1CCCCCC1)C2=O)c1ccc(F)cc1
[54]
  GI50: > 100 µM (inactive)
[1]
  GI50: > 100 µM (inactive)
[2]
  GI50: 33.1 µM (inactive)
[3]
  GI50: > 100 µM (inactive)
[5]
  GI50: 32.4 µM (inactive)
[55]
  GI50: 58.5 µM (inactive)
[6]
  GI50: > 100 µM (inactive)
[7]
  GI50: > 100 µM (inactive)
[8]
  GI50: 77.1 µM (inactive)
[9]
  GI50: 55 µM (inactive)
[10]
  GI50: 29.2 µM (inactive)
[11]
  GI50: > 100 µM (inactive)
[13]
  GI50: 81.5 µM (inactive)
[14]
  GI50: 34.4 µM (inactive)
[15]
  GI50: 65.5 µM (inactive)
[16]
  GI50: > 100 µM (inactive)
[17]
  GI50: 18.5 µM (inactive)
[18]
  GI50: 26.7 µM (inactive)
[58]
  GI50: 62.7 µM (inactive)
[19]
  GI50: 23.6 µM (inactive)
[20]
  GI50: > 100 µM
[21]
  GI50: > 100 µM (inactive)
[22]
  GI50: 41.7 µM (inactive)
[23]
  GI50: 5.7 µM (inactive)
[24]
  GI50: > 100 µM (inactive)
[25]
  GI50: 52.7 µM (inactive)
[26]
  GI50: 35.7 µM (inactive)
[27]
  GI50: 14.1 µM (inactive)
[28]
  GI50: 20.8 µM (inactive)
[29]
  GI50: > 100 µM (inactive)
[30]
  GI50: 52.8 µM (inactive)
[31]
  GI50: 54.2 µM (inactive)
[32]
  GI50: 35.1 µM (inactive)
[34]
  GI50: > 100 µM (inactive)
[35]
  GI50: 40.6 µM (inactive)
[36]
  GI50: > 100 µM (inactive)
[37]
  GI50: 91.6 µM (inactive)
[38]
  GI50: 33.6 µM (inactive)
[39]
  GI50: > 100 µM (inactive)
[40]
  GI50: 27.6 µM (inactive)
[41]
  GI50: > 100 µM (inactive)
[42]
  GI50: > 100 µM (inactive)
[43]
  GI50: 50.8 µM (inactive)
[44]
  GI50: 16.4 µM (inactive)
[45]
  GI50: 36.1 µM (inactive)
[46]
  GI50: > 100 µM (inactive)
[47]
  GI50: 18.2 µM (inactive)
[48]
  GI50: > 100 µM (inactive)
[49]
  GI50: 82.6 µM (inactive)
[50]
  GI50: 91.6 µM (inactive)
[57]
  GI50: > 100 µM (inactive)
[51]
  GI50: > 100 µM (inactive)
[52]
  GI50: 46.2 µM (inactive)

## CC/N=C(\N)CSS(=O)(=O)O
[54]
  GI50: 71.1 µM (inactive)
[1]
  GI50: > 100 µM (inactive)
[2]
  GI50: 38.3 µM (inactive)
[3]
  GI50: > 100 µM (inactive)
[4]
  GI50: 77.3 µM (inactive)
[5]
  GI50: > 100 µM (inactive)
[55]
  GI50: > 100 µM (inactive)
[6]
  GI50: > 100 µM (inactive)
[56]
  GI50: > 100 µM (inactive)
[7]
  GI50: > 100 µM (inactive)
[8]
  GI50: > 100 µM (inactive)
[9]
  GI50: > 100 µM (inactive)
[10]
  GI50: 36.5 µM (inactive)
[11]
  GI50: > 100 µM (inactive)
[12]
  GI50: > 100 µM (inactive)
[13]
  GI50: > 100 µM (inactive)
[14]
  GI50: > 100 µM (inactive)
[15]
  GI50: > 100 µM (inactive)
[16]
  GI50: > 100 µM (inactive)
[17]
  GI50: > 100 µM (inactive)
[59]
  GI50: > 100 µM (inactive)
[18]
  GI50: > 100 µM (inactive)
[58]
  GI50: > 100 µM (inactive)
[19]
  GI50: > 100 µM (inactive)
[20]
  GI50: > 100 µM
[21]
  GI50: > 100 µM (inactive)
[22]
  GI50: > 100 µM (inactive)
[23]
  GI50: > 100 µM (inactive)
[24]
  GI50: > 100 µM (inactive)
[25]
  GI50: > 100 µM (inactive)
[26]
  GI50: > 100 µM (inactive)
[27]
  GI50: > 100 µM (inactive)
[28]
  GI50: > 100 µM (inactive)
[29]
  GI50: > 100 µM (inactive)
[30]
  GI50: > 100 µM (inactive)
[31]
  GI50: > 100 µM (inactive)
[32]
  GI50: > 100 µM (inactive)
[33]
  GI50: > 100 µM (inactive)
[34]
  GI50: > 100 µM (inactive)
[35]
  GI50: > 100 µM (inactive)
[36]
  GI50: > 100 µM (inactive)
[37]
  GI50: > 100 µM (inactive)
[38]
  GI50: > 100 µM (inactive)
[39]
  GI50: > 100 µM (inactive)
[40]
  GI50: > 100 µM (inactive)
[41]
  GI50: > 100 µM (inactive)
[42]
  GI50: > 100 µM (inactive)
[43]
  GI50: > 100 µM (inactive)
[44]
  GI50: > 100 µM (inactive)
[45]
  GI50: 34.6 µM (inactive)
[46]
  GI50: > 100 µM (inactive)
[47]
  GI50: > 100 µM (inactive)
[48]
  GI50: > 100 µM (inactive)
[49]
  GI50: > 100 µM (inactive)
[57]
  GI50: > 100 µM (inactive)
[51]
  GI50: > 100 µM (inactive)
[52]
  GI50: > 100 µM (inactive)
